Columns and labels:
HepG2 hepatoma cell line = experiment: Cytotoxicity, MTT assay, HepG2; format: cell-based; details: Homo sapiens, 72 h exposure, read-out: HepG2 Cells IC50
Description: (§1) All the cell line that were used in this study are (CCD-1064SK) the human normal skin fibroblast and HepG2 hepatoma cell line. The CCD-1064SK and HepG2 cell line was purchased from American Type Culture Collection (ATCC, Manassas, VA, USA). Cells were cultured in Iscove’s medium as recommended from ATCC. Media was supplement with 10% heated fetal bovine serum, 1% of 2 Mm L-glutamine, and (100 IU/mL) penicillin/(100 ug/mL) streptomycin. According to the cells growth profile, cells were seeded with a density of 10 × 10^4 cell/well. Cell viability was determined by trypan blue exclusion using a hemocytometer. For the cytotoxicity assay, cells were washed with phosphate buffer saline (PBS). PBS was decanted and cells detached with 0.025% trypsin-EDTA (EuroClone). Media was added to a volume of 10 mL. The cell suspension was centrifuged at 1000 rpm for 10 min and the pellet was resuspended in 10 mL medium to make a single cell suspension. Viability of the cells was determined by trypan blue exclusion, and it exceeded 90% as counted in a hemocytometer. The cell suspension was diluted afterwards to give the optimal seeding density and 100 uL of the cell suspension was plated in a 96 well plate. Cells were cultured at 37 °C in a humidified atmosphere of 5% CO2. After 24 h the cells were treated with different concentrations of tested compounds, (each compound was initially dissolved in DMSO). Initially, 100 and 50 ug/mL of each extract were tested. The active compounds were those which gave less than 50% survival at exposure time 72 h. The final dilution for all prepared concentrations used for treating the cells contained not more than 0.01% of the initial solvent (DMSO), this concentration being used in the solvent control wells. At the end of the exposure time, cell growth was analyzed using the MTT assay. MTT assay: After 72 h of incubation, 15 µL of MTT stock solution (Promega) (5 mg/mL in sterile phosphate-buffered saline, pH 7.4) was added to each well. After the cells were incubated for 3 h in the presence of MTT, 100 µL of solubilizing stop solution was added to each well to solubilize the dark violet formazan crystals. The optical densities at 570 nm were then measured using a microplate reader. The results were expressed as a percentage of cell viability with respect to a control corresponding to untreated cells.

[1] = biological target: T1, porcine PL (pancreatic lipase) (Sus scrofa, UniProt P00591); experiment: GC-FID based anti-lipase assay (phenyl acetate hydrolysis); format: biochemical; details: for IC50: porcine pancreatic lipase, phenyl acetate substrate, GC-FID, read-out: IC50 (nM) against PL
T1 construct: Lipase from porcine pancreas, Type II; purchased Sigma Aldrich L3126; host or cells: porcine pancreas (tissue-derived)
T1 sequence (P00591 1-450): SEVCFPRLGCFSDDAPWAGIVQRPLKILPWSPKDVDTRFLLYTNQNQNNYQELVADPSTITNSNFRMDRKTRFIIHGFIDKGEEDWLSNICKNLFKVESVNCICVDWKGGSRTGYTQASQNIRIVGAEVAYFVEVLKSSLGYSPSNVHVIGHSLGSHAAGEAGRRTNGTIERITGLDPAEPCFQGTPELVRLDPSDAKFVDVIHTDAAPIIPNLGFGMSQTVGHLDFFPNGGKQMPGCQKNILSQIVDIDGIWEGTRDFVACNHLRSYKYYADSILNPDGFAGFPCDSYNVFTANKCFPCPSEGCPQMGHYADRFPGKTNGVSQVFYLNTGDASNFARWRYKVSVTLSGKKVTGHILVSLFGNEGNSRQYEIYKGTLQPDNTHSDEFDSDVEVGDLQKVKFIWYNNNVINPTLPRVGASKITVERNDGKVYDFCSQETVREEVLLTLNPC
Description: All chemicals and solvents were purchased from commercial suppliers (Amman, Jordan) and used without further purification. Anhydrous solvents were distilled from sodium and benzophenone before use. NMR (The University of Jordan, Amman, Jordan) spectra were recorded on a Varian 500 MHz spectrometer (500 and 125 MHz for the ^1H and ^13C nuclei, respectively) using CDCl3 as solvents and spectra were referenced to residual solvent as internal standard (for CDCl3 δH 7.26 and δC 77.1). LC-HRMS data for analysis of compounds 3−13 were obtained on an Agilent 6239 HR-ESI-TOFMS (UCSD, San Diego, CA, USA) equipped with a Phenomenex Luna 5 µm C18 100 Å column (4.6 × 250 mm). LCMS data for purity analysis of the synthesized compounds 3−13 were obtained with a Thermo Finnigan Surveyor Autosampler-Plus/LC-PumpPlus/PDA-Plus system and a Thermo Finnigan LCQ Advantage Max mass spectrometer (monitoring m/z 150−2000 in positive ion mode) using a linear gradient of 30–100% H2O/acetonitrile over 30 min; flow rate of 0.9 mL/min (UCSD, San Diego, CA, USA). Semipreparative HPLC (UCSD, San Diego, CA, USA) purification was carried out using a Waters 515 with a Waters 996 photodiode array detector using Empower Pro software. […] Chemical shifts (δ) are given in parts per million (ppm) and coupling constants (J) are reported in Hertz (Hz). The compounds are named in accordance with IUPAC rules as applied by ChemBioDraw Ultra (version 20.1.1) (software provided by the University of Jordan, Amman, Jordan). GCMS analysis: Thermo Scientific Focus gas chromatography coupled to a flame ionization […] was used to analyze the samples. A total of 1.0 µL sample was injected into the Thermo Scientific Focus GC-FID equipped with a split/spitless injector (split ratio, 2.5). The column was HP-5 (DP-5) capillary column stationary phase. Helium was the carrier gas at a flow rate of 1.0 mL/min. Linear temperature program was applied from 100 to 250 °C at 5 °C/min. The specific run time of analysis for each sample was […]. The temperatures of the injector base and the detector were maintained at 250 °C, 250 °C respectively. Lipase from porcine pancreas, Type II, 100–650 units/mg protein (product# L3126) was purchased from Sigma Aldrich (Amman, Jordan).
All tested compounds were dissolved in DMSO to prepare a stock solution (of each compound) having a known concentration. A proper aliquot of each tasted compound was obtained by further dilution of the stock. Samples were prepared and analyzed for their phenyl acetate content by adopting an internal standard procedure. the sample analysis performed using GC-FID. For each sample, 50 µL of 2 mg/mL pancreatic lipase, phenyl acetate (1 mM), and 50 µL of each candidate inhibitor. […] Subsequently, the samples were left for overall time of 20 min vortex and centrifuged for approximately 3 min. For extraction of the phenyl acetate remain in the aqueous layer the nonpolar solvent chloroform containing the internal standard added, then vortex and centrifuged and the chloroform removed to another tube for the GC-FID analysis.
The linearity, RSD, LOD, and LOQ were evaluated for the method of analysis. […] The LOD and LOQ both was measured using the signal-to-noise method. The ratio of the analyte signal to the peak-to-peak noise signal around it was measured of (3:1) which is generally accepted signal-to-noise ratio (S/N) for the LOD estimation.

[2] = test system: CCD-1064Sk fibroblast cell line; experiment: Cytotoxicity, MTT assay, fibroblasts; format: cell-based; details: Homo sapiens, 72 h exposure
Description: as §1

dietary fat absorption = details: therapeutic dose; cited from earlier work

Row | Structure (SMILES) | IC50 [1] [nM] | inhibition of PL at the highest concentration tested ([1]; 10 µM) | IC50 (HepG2 hepatoma cell line) [nM] | IC50 [2] [nM] | inhibition of dietary fat absorption (dietary fat absorption)
1 | CCCCCCCCCCCC(=O)N[C@@H](Cc1ccc(F)cc1F)C(=O)[C@@]1(C)CO1 [Analogue 3, N-((S)-3-(2,4-difluorophenyl)-1-((R)-2-methyloxiran-2-yl)-1-oxopropan-2-yl)dodecanamide] | 29.3 ± 2.4 |  | 2600 | > 15000 | 
2 | CCCCCCCCCCCC(=O)N[C@@H](CCCC)C(=O)N[C@@H](Cc1ccc(F)cc1F)C(=O)[C@@]1(C)CO1 [Analogue 4, N-((S)-1-(((S)-3-(2,4-difluorophenyl)-1-((R)-2-methyloxiran-2-yl)-1-oxopropan-2-yl)amino)-1-oxohexan-2-yl)dodecanamide] | 9.3 ± 2.5 |  | 2320 | > 15000 | 
3 | CC(C)(C)OC(=O)N[C@@H](Cc1ccc(F)cc1F)C(=O)[C@@]1(C)CO1 [Analogue 5, tert-butyl ((S)-3-(2,4-difluorophenyl)-1-((R)-2-methyloxiran-2-yl)-1-oxopropan-2-yl)carbamate] | 29.4 ± 4.8 |  | > 15000 | > 15000 | 
4 | C[C@]1(C(=O)[C@@H](N)Cc2ccc(F)cc2F)CO1 [Analogue 9, (S)-2-amino-3-(2,4-difluorophenyl)-1-((R)-2-methyloxiran-2-yl)propan-1-one] | 41.5 ± 7.1 |  | > 15000 | > 15000 | 
5 | C[C@]1(C(=O)[C@@H](N)Cc2ccccc2)CO1 [Analogue 10] | 73.1 ± 9.8 |  | > 15000 | > 15000 | 
6 | CC(C)(C)OC(=O)N[C@@H](Cc1ccc(F)cc1F)C(=O)[C@]1(C)CO1 [Analogue 11, tert-butyl ((S)-3-(2,4-difluorophenyl)-1-((S)-2-methyloxiran-2-yl)-1-oxopropan-2-yl)carbamate] | 29 ± 4.2 |  | > 15000 | > 15000 | 
7 | CCCCCC(=O)N[C@H](C(=O)N[C@@H](CCS(C)(=O)=O)C(=O)N[C@@H](CC(C)C)C(=O)[C@@]1(C)CO1)C(C)C [carmaphycin B (2), carmaphycin B, reference compound] | 25 ± 1.1 |  |  |  | 
8 | CCCCCCCCCCC[C@@H](C[C@@H]1OC(=O)[C@H]1CCCCCC)OC(=O)[C@H](CC(C)C)NC=O [orlistat (1), orlistat] |  |  |  |  | approximately 30%

Continued, in another order:

Row | IC50 [1] [nM] | inhibition of PL at the highest concentration tested ([1]; 10 µM) | Structure (SMILES) | IC50 (HepG2 hepatoma cell line) [nM] | IC50 [2] [nM] | inhibition of dietary fat absorption (dietary fat absorption)
9 | 46.4 ± 3.7 |  | CC(C)(C)OC(=O)N[C@@H](Cc1ccc(F)cc1)C(=O)[C@@]1(C)CO1 [Analogue 6, tert-butyl ((S)-3-(4-fluorophenyl)-1-((R)-2-methyloxiran-2-yl)-1-oxopropan-2-yl)carbamate] | > 15000 | > 15000 | 
10 | 49.1 ± 11.4 |  | CC(C)(C)OC(=O)N[C@@H](Cc1ccccc1)C(=O)[C@@]1(C)CO1 [Analogue 7, tert-butyl ((S)-1-((R)-2-methyloxiran-2-yl)-1-oxo-3-phenylpropan-2-yl)carbamate] | > 15000 | > 15000 | 
11 | 120 ± 15.2 |  | CC(C)C[C@H](NC(=O)OC(C)(C)C)C(=O)[C@@]1(C)CO1 [Analogue 8, tert-butyl ((S)-4-methyl-1-((R)-2-methyloxiran-2-yl)-1-oxopentan-2-yl)carbamate] | > 15000 | > 15000 | 
12 | > 10000 | did not inhibit | C=C(C)C(=O)[C@H](Cc1ccc(F)cc1F)NC(=O)OC(C)(C)C [Analogue 13, tert-butyl (S)-(1-(2,4-difluorophenyl)-4-methyl-3-oxopent-4-en-2-yl)carbamate] | > 15000 | > 15000 | 

— article PMC9000415, “Discovery of Novel Epoxyketone Peptides as Lipase Inhibitors” (Molecules, 2022)
